Columns and labels:
[1] = molecular target: T1, human RORγt (Ligand Binding Domain) (Homo sapiens, UniProt P51449); test: Fluorescence Polarization (FP) Assay; conditions: Fluorescence Polarization (FP) Assay; values given as upper bounds of activity ranges; read-out: FP activity range
T1 construct: purchased Crelux (Planegg, Germany) batch no PC5032-1
T1 sequence (P51449 269-508 limits assumed): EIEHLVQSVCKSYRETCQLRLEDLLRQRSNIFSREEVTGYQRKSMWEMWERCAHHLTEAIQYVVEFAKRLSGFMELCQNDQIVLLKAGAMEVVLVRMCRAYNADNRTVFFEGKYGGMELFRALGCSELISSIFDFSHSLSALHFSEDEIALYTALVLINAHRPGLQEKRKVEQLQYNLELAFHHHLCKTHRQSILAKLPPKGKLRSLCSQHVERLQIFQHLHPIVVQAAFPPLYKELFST
In short: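 Binding to the ligand pocket followed by fluorescence polarization with a TAMRA-tagged RORγt ligand probe of 910 g/mole. Negative control wells received DMSO only.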

[2] = molecular target: T2, yeast Gal4-DNA binding domain fused to the ligand binding domain of human RORγ (Homo sapiens, UniProt P51449); test: RORγ Reporter Assay (Gal4); format: cell-based; conditions: RORγ Reporter Assay (Gal4) at 1 μM; values given as lower bounds of ranges
T2 construct: host or cells: HEK293t
T2 sequence (P51449 269-508 limits assumed): T1 sequence (P51449 269-508 limits assumed)
Experimental: The activity of the compounds was evaluated using a Fluorescence Polarization (FP) Assay and, in most cases, a Th17 Assay and/or RORγ Reporter assay (also referred to as Gal4 assay). The FP assay is an in vitro assay monitoring binding within the ligand binding pocket. The RORγ and the Th17 assays are both cell-based assays monitoring functional activity of the compound assayed.
Cell-based RORγ functional assays were performed using a commercially available assay product (INDIGO Biosciences, State College, Pa., USA; product # IB04001). The RORγ reporter cells are HEK293t cells transfected with one vector that provides high level constitutive expression of a hybrid protein comprised of the yeast Gal4-DNA binding domain fused to the ligand binding domain of human RORγ, and a second vector comprising the firefly luciferase cDNA functionally linked to the upstream activation sequence (UAS) of yeast Gal4. A suspension of RORγ Reporter Cells was prepared using the protocol and culture medium provided in the kit product, and 100 μl of the Reporter Cell suspension was then dispensed into wells of a white, collagen-treated, 96-well assay plate. Concentrated stocks of test compounds were prepared in DMSO, then further diluted using media provided in the kit to generate ‘2×-concentration’ treatment media. 100 μl of medium for each respective treatment concentration dispensed into triplicate assay wells, thereby combining with the reporter cells. All media formulations contained 10% charcoal stripped Fetal Bovine Serum, but are otherwise proprietary to INDIGO Biosciences. Final treatment concentrations for each test compound were 1,000 nM and 100 nM, each with 0.1% residual DMSO. Separate control treatments were media supplemented with vehicle only (0.1% DMSO) to determine the constitutive level of RORγ activity in the reporter cells, and the reference inverse-agonist ursolic acid (f.c. 6,000 nM to 8.2 nM in 3-fold decrements) to establish a positive control inverse-agonist dose response. Assay plates were placed in a 37° C., 5% CO2, 85% humidity incubator for 24 hour. Treatment media were then discarded, 100 μl of luciferase detection reagent was added to each well, and relative light units (RLUs) were quantified from each assay well using a plate reading luminometer. Values of average RLU+/−standard deviation were computed for all treatment sets, followed by the calculations of fold-reduction: [Average RLUVehicle/Average RLUTest Cmpd]. Percent-reduction of RORγ activity in response to respective test compound treatments was calculated: [100*(1−[Ave RLUTest Cmpd/Ave RLUVehicle)] where the theoretical minimum reduction (0% reduction) derives from Vehicle treatment only, no treatment compound.

IC50 [1] [nM]	Gal4 activity range @ 1 μM (% inhibition) [2] [% inhibition]	SMILES
< 10000	>0	CNC(=O)[C@@H](CC(C)(C)C)N(C)c1ncnc(N2CCCC2c2ccc(C(F)(F)F)cc2)c1F (stereo partly drawn) [Example 31, (2R)-2-[[5-fluoro-6-[2-[4-(trifluoromethyl)phenyl]pyrrolidin-1-yl]pyrimidin-4-yl]-methyl-amino]-N,4,4-trimethyl-pentanamide]
< 10000	>20	CC(C)(C)C[C@@H](Nc1ccnc(N2CCCC2c2ccc(C(F)(F)F)cc2)c1F)C(N)=O (stereo partly drawn) [Example 39, (2R)-2-[[3-fluoro-2-[2-[4-(trifluoromethyl)phenyl]pyrrolidin-1-yl]-4-pyridyl]amino]-4,4-dimethyl-pentanamide]
< 2000	>20	CC(C)(C)C[C@@H](Nc1ncnc(N2CCCC2c2ccc(C(F)(F)F)cn2)c1F)C(N)=O (stereo partly drawn) [Example 42, (2R)-2-[[5-fluoro-6-[2-[5-(trifluoromethyl)-2-pyridyl]pyrrolidin-1-yl]pyrimidin-4-yl]amino]-4,4-dimethyl-pentanamide]
< 1000	>20	COc1ccc(CNc2ncnc(N3CCCC3c3ccc(C(F)(F)F)cc3)c2F)cc1OC (stereo not shown) [Example 53, N-[(3,4-dimethoxyphenyl)methyl]-5-fluoro-6-[2-[4-(trifluoromethyl)phenyl]pyrrolidin-1-yl]pyrimidin-4-amine]
< 2000	>20	Fc1c(NCc2ccc(N3CCOCC3)cc2)ncnc1N1CCCC1c1ccc(C(F)(F)F)cc1 (stereo not shown) [Example 56, 5-fluoro-N-[(4-morpholinophenyl)methyl]-6-[2-[4-(trifluoromethyl)phenyl]pyrrolidin-1-yl]pyrimidin-4-amine]
< 2000	>20	O=C1CN(c2ccc(CNc3ncnc(N4CCCC4c4ccc(C(F)(F)F)cc4)c3F)cc2)CCN1 (stereo not shown) [Example 60, 4-[4-[[[5-fluoro-6-[2-[4-(trifluoromethyl)phenyl]pyrrolidin-1-yl]pyrimidin-4-yl]amino]methyl]phenyl]piperazin-2-one]
< 500	–	NC(=O)Cc1ccc(CNc2ncnc(N3CCCC3c3ccc4ccccc4c3)c2F)cc1 (stereo not shown) [Example 312, 2-[4-[[[5-fluoro-6-[2-(2-naphthyl)pyrrolidin-1-yl]pyrimidin-4-yl]amino]methyl]phenyl] acetamide]
< 10000	–	Cc1nnc(C2CCCN2c2ncnc(NCc3ccc(CC(N)=O)cc3)c2F)o1 (stereo not shown) [Example 315, 2-[4-[[[5-fluoro-6-[2-(5-methyl-1,3,4-oxadiazol-2-yl)pyrrolidin-1-yl]pyrimidin-4-yl]amino]methyl]phenyl]acetamide]
< 10000	–	Cc1nn(C)cc1C1CCCN1c1ncnc(NCc2ccc(CC(N)=O)cc2)c1F (stereo not shown) [Example 317, 2-[4-[[[6-[2-(1,3-dimethylpyrazol-4-yl)pyrrolidin-1-yl]-5-fluoro-pyrimidin-4-yl]amino]methyl]phenyl]acetamide]
< 1000	–	CC(C)(C)C[C@@H](Nc1ncnc(N2CCC[C@@H]2c2ccc(C(F)(F)F)cc2)c1F)C(=O)O [Example 325, (2R)-2-[[5-fluoro-6-[(2R)-2-[4-(trifluoromethyl)phenyl]pyrrolidin-1-yl]pyrimidin-4-yl]amino]-4,4-dimethyl-pentanoic acid]
< 2000	–	CS(=O)(=O)c1ccc(Cn2ccc3c(N4CCOC[C@@H]4c4ccc(OC(F)(F)F)cc4)ncnc32)nc1 [Example 330, (3S)-4-[7-[(5-methylsulfonyl-2-pyridyl)methyl]pyrrolo[2,3-d]pyrimidin-4-yl]-3-[4-(trifluoromethoxy)phenyl] morpholine]

Continued, compound first:

SMILES	IC50 [1] [nM]	Gal4 activity range @ 1 μM (% inhibition) [2] [% inhibition]
Cc1c(N[C@H](CC(C)(C)C)C(N)=O)ncnc1N1CCCC1c1ccc(C(F)(F)F)cc1 (stereo partly drawn) [Example 14, (2R)-4,4-dimethyl-2-[[5-methyl-6-[2-[4-(trifluoromethyl)phenyl]pyrrolidin-1-yl]pyrimidin-4-yl]amino]pentanamide]	< 10000	>0
COc1ccc(C[C@@H](Nc2ncnc(N3CCCC3c3ccc(C(F)(F)F)cc3)c2F)C(N)=O)cc1 (stereo partly drawn) [Example 17, (2R)-2-[[5-fluoro-6-[2-[4-(trifluoromethyl)phenyl]pyrrolidin-1-yl]pyrimidin-4-yl]amino]-3-(4-methoxyphenyl)propanamide]	< 500	>80
CC(C)(C)C[C@@H](Nc1ncnc(N2CCOCC2c2ccc(C(F)(F)F)cc2)c1F)C(N)=O (stereo partly drawn) [Example 20, (2R)-2-[[5-fluoro-6-[3-[4-(trifluoromethyl)phenyl]morpholin-4-yl]pyrimidin-4-yl]amino]-4,4-dimethyl-pentanamide]	< 2000	>50
CC(C)(C)C[C@@H](Nc1ncnc(N2CCCC2c2ccc(OC(C)(C)C)cc2)c1F)C(N)=O (stereo partly drawn) [Example 43, (2R)-2-[[6-[2-(4-tert-butoxyphenyl)pyrrolidin-1-yl]-5-fluoro-pyrimidin-4-yl]amino]-4,4-dimethyl-pentanamide]	< 1000	>80
CC(OC(C)(C)C)[C@@H](Nc1ncnc(N2CCCC2c2ccc(C(F)(F)F)cc2)c1F)C(N)=O (stereo partly drawn) [Example 51, (2R)-3-tert-butoxy-2-[[5-fluoro-6-[2-[4-(trifluoromethyl)phenyl]pyrrolidin-1-yl]pyrimidin-4-yl]amino]butanamide]	< 1000	>80
NC(=O)[C@@H](CC1CCOCC1)Nc1ncnc(N2CCCC2c2ccc(C(F)(F)F)cc2)c1F (stereo partly drawn) [Example 52, (2R)-2-[[5-fluoro-6-[2-[4-(trifluoromethyl)phenyl]pyrrolidin-1-yl]pyrimidin-4-yl]amino]-3-tetrahydropyran-4-yl-propanamide]	< 2000	>80
COc1cccc(CNc2ncnc(N3CCCC3c3ccc(C(F)(F)F)cc3)c2F)c1OC (stereo not shown) [Example 54, N-[(2,3-dimethoxyphenyl)methyl]-5-fluoro-6-[2-[4-(trifluoromethyl)phenyl]pyrrolidin-1-yl]pyrimidin-4-amine]	< 1000	>50
NC(=O)[C@@H](CC1CCNC1=O)Nc1ncnc(N2CCCC2c2ccc(C(F)(F)F)cc2)c1F (stereo partly drawn) [Example 63, (2R)-2-[[5-fluoro-6-[2-[4-(trifluoromethyl)phenyl]pyrrolidin-1-yl]pyrimidin-4-yl]amino]-3-(2-oxopyrrolidin-3-yl)propanamide]	< 2000	>20
CC(C)(C)C[C@@H](Nc1ncnc(N2CCCC2c2ccc(C(F)(F)F)cc2)c1F)C1CNCCO1 (stereo partly drawn) [Example 64, N-[(1R)-3,3-dimethyl-1-morpholin-2-yl-butyl]-5-fluoro-6-[2-[4-(trifluoromethyl)phenyl]pyrrolidin-1-yl]pyrimidin-4-amine]	< 2000	>20
Cc1nc(C2CCCN2c2ncnc(NCc3ccc(CC(N)=O)cc3)c2F)no1 (stereo not shown) [Example 314, 2-[4-[[[5-fluoro-6-[2-(5-methyl-1,2,4-oxadiazol-3-yl)pyrrolidin-1-yl]pyrimidin-4-yl]amino]methyl]phenyl]acetamide]	< 10000	–
CS(=O)(=O)c1ccc(Cn2ccc3c(N4CCOC[C@@H]4c4ccc(OC(F)(F)F)cc4)ncnc32)cn1 [Example 329, (3S)-4-[7-[(6-methylsulfonyl-3-pyridyl)methyl]pyrrolo[2,3-d]pyrimidin-4-yl]-3-[4-(trifluoromethoxy)phenyl] morpholine]	< 2000	–

Reference: patent publication US10689383B2, “Optionally fused heterocyclyl-substituted derivatives of pyrimidine useful for the treatment of inflammatory, metabolic, oncologic and autoimmune diseases” (NUEVOLUTION A/S, priority 2014, dated 2020)
